The text below walks through data of patent publication US20040071762A1, “Diagnostic test for schizophrenia, using niacin” (Scotia Holdings PLC, priority 1996, published 2004).

For assay [1], the system named is skin. The conditions noted are these: 100-300 mg given orally, cited from earlier work.
Assay [2] concerns skin. Description: Topical niacin skin patch test, redness (flushing) scored 0-3. Format: in vivo, human. The settings on record: for Percentage responding with absent [0] reddening of the skin / Percentage responding with marked [3] reddening of the skin / Percentage responding with mild [1] reddening of the skin / Percentage responding with moderate [2] reddening of the skin: 5 minutes. The source says:
The test involves the topical application of niacin solutions, preferably in a carrier such as gauze, cotton, wax or appropriate fibre or absorbent material, to the skin of any part of the body, but conveniently the forearm or upper arm. A range of solutions may be used from 0.00001M to 1 molar. A single concentration may be chosen and used but desirably use is made of a range of steps varying from two to twenty. We have found it convenient is to use a range of four solutions of 0.1, 0.01, 0.001 and 0.0001M, e.g. 0.05 ml of each, but other concentrations within the range and other numbers of steps can be used as found appropriate, both in diagnosis and in monitoring as discussed above. […] The wells or depressions may be sealed by another plastic or other strip which isolates them from the atmosphere and which can be removed immediately prior to testing. The strip with the open wells can then be applied to the skin surface with light pressure and removed after an appropriate time which may be e.g. 0.5 minutes up to 10 or 15 minutes but preferably 3 to 6 minutes.
Both of these effects are due to vasodilatation of the small blood vessels of the skin. The redness may be scored in relation to the adjacent unaffected skin on an appropriate scale which can be either “present” or “absent”, or can be semi-quantitative, such as mild, moderate or marked, or can be made fully quantitative by use of a spectrophotometer or other appropriate instrument e.g. a blood flow meter. The oedema can likewise be scored as present or absent or can be scored semi-quantitatively or quantitatively.
We have also used a scoring system in which the degree of redness under each patch was scored as 0=no change, 1=mild redness, 2=moderate redness and 3=marked redness. When the test is used commercially, sample colour charts may show how the test can be used with individuals of varying skin colour. With particularly dark-skinned individuals, oedema or a measurement of skin surface temperature or heat loss may be required to give the best results.

Where [3] appears, read: normal controls (n=22), topical niacin 0.000. M.
The mark [4] stands for this setting: normal controls (n=22), topical niacin 0.001 M.
The mark [5] stands for this setting: normal controls (n=22), topical niacin 0.01 M.
The mark [6] stands for this setting: normal controls (n=22), topical niacin 0.1 M.
Setting [7] is: schizophrenics (n=38), topical niacin 0.000. M.
Where [8] appears, read: schizophrenics (n=38), topical niacin 0.001 M.
[9] abbreviates: schizophrenics (n=38), topical niacin 0.01 M.
Where [10] appears, read: schizophrenics (n=38), topical niacin 0.1 M.

Like-named read-outs stand apart in the source and are kept apart here.

As for `O=C(O)c1cccnc1` [Niacin, nicotinic acid], the “Flushing response to oral niacin” value is “fail to flush” in assay [1] (a substantial proportion of schizophrenics) and “flush markedly” in assay [1] (most normal individuals). Moreover, the “Response to topical niacin test in depressives” value in assay [2] (depressives, expected by analogy with oral niacin) is “the same as for normal individuals”. The “Percentage responding with absent [0] reddening of the skin” value is 35.3% in assay [2] (setting [3]); 31.8% in assay [2] (setting [4]); 9.1% in assay [2] (setting [5]); 4.5% in assay [2] (setting [6]); 88.2% in assay [2] (setting [7]); 67.6% in assay [2] (setting [8]). The “Percentage responding with absent [0] reddening of the skin” value in assay [2] (setting [9]) was 41.2%; in assay [2] (setting [10]), 13.5%. Moreover, the “Percentage responding with marked [3] reddening of the skin” value in assay [2] (setting [3]) was determined as 17.6%; in assay [2] (setting [4]), 18.2%; in assay [2] (setting [5]), 31.8%; in assay [2] (setting [6]) it was 59.1%; in assay [2] (setting [7]) it was 0%; in assay [2] (setting [8]), 0%. For the same compound, the results for the “Percentage responding with marked [3] reddening of the skin” value in assay [2] (setting [9]) and in assay [2] (setting [10]) were 0% and 5.4%, respectively. The “Percentage responding with mild [1] reddening of the skin” value is 29.4% in assay [2] (setting [3]); 9.1% in assay [2] (setting [4]); 13.6% in assay [2] (setting [5]); 9.1% in assay [2] (setting [6]); 8.8% in assay [2] (setting [7]); 29.4% in assay [2] (setting [8]). The “Percentage responding with mild [1] reddening of the skin” value in assay [2] (setting [9]) is 41.2%; in assay [2] (setting [10]) it was 37.8%. The “Percentage responding with moderate [2] reddening of the skin” value in assay [2] (setting [3]) is 17.6%; in assay [2] (setting [4]), 40.9%; in assay [2] (setting [5]), 45.5%; in assay [2] (setting [6]) it was 27.3%; in assay [2] (setting [7]) it was 2.9%; in assay [2] (setting [8]), 2.9%. Also, the “Percentage responding with moderate [2] reddening of the skin” value amounted to 17.6% in assay [2] (setting [9]) and 43.2% in assay [2] (setting [10]).

For `NC(=O)c1cccnc1` [Nicotinamide], the “Flushing reaction in normal individuals” value in assay [2] (form passing the skin, suitability for the topical test) was “does not elicit the reaction”.
